From patent US20240254118A1, “PRMT5 INHIBITORS AND USES THEREOF” (Gilead Sciences, Inc., priority 2022, published 2024)

Legend:
[1] = system: SDMA signal (PRMT5 inhibition) in HCT116 MTAP-deleted cells; assay: Symmetric di-methyl arginine image-based high content screen assay (SDMA assay), HCT116 MTAP-deleted; assay type: cell-based; details: SDMA assay; for EC50: Homo sapiens, HCT-116, 72 h, 3 days of treatment, cell line not given, taken as HCT116 MTAP-deleted, read-out: EC50 (SDMA assay); for EC50 selectivity (SDMA assay): taken as HCT116 WT versus MTAP-deleted
Method in brief: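 HCT116 MTAP-deleted cells treated with compound until Day 3, then formalin-fixed, permeabilized and immunostained for SDMA, with DAPI nuclear counterstain. Imaged by high-content microscopy; SDMA read-out is mean Alexa 488 intensity per DAPI-defined cell, reflecting PRMT5 inhibition.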

[2] = system: HCT116 MTAP-deleted cells; assay: Cell viability assay (CellTiter-Glo, 7 days), HCT116 MTAP-deleted; details: Homo sapiens, HCT-116, 168 h
Description: Control compounds were analyzed in parallel each time for quality control.
In Brief, on Day −1, a serial dilution of stock compounds in DMSO was performed using BioMek liquid handlers and dispensed using Echo acoustic dispenser into 384 well plates. Both tool compounds and sample compounds were spotted in the same plate for a dose response of PRMT5 inhibitors. Compound plates were stored as frozen until the cells were ready for seeding.
On Day 0, 100 HCT WT or HCT116 MTAP-deleted cells were seeded in compound-containing 384 well plates (50 μl per well) in RPMI 1640 media supplemented with 10% heat inactivated fetal bovine serum, Glutamax and penicillin streptomycin using EL460 liquid dispenser 5 μl cassette (BioTek, part no. 7170011). After equilibrating the plate in room temperature, the cells were incubated for 7 days inside the sealed incubator set at 37 °C with 90% humidity and 5% CO2.
On Day 7, the viability of cells was measured using a CTG assay kit (CellTitre-Glo; Promega cat no. G7573). Shortly, 40 μl per well of luminescent cell viability assay reagent were dispensed using EL460 liquid dispenser 5 μl cassette. CTG luminescence signal was measured using an EnVision plate reader (PerkinElmer) in accordance with manufacturer's instruction. The CC50 values for each compound after 7 days of treatment were calculated using 4 parameter non-linear logistical curve fit.

| EC50 [1] [nM] | EC50 selectivity (SDMA assay) [1] | SMILES | CC50 [2] [nM] |
| --- | --- | --- | --- |
| < 1 | 213 | [2H]C([2H])([2H])n1ncc2c(N)nc3ccc(C(=O)N(Cc4ccc(C(F)(F)F)cn4)N(C)C(=O)C4CC4)cc3c21 [Example 257, 4-amino-N′-(cyclopropanecarbonyl)-N′-methyl-1-(methyl-d3)-N-((5-(trifluoromethyl)pyridin-2-yl)methyl)-1H-pyrazolo[4,3-c]quinoline-8-carbohydrazide] | < 100 |
| 1 to 5 | 221 | CN(C(=O)[C@H]1C[C@H]1F)N(Cc1ccc(C(F)(F)F)cn1)C(=O)c1ccc2nc(N)c3cnn(C)c3c2c1 [Example 258, 4-amino-N′-((1R,2R)-2-fluorocyclopropane-1-carbonyl)-N′,1-dimethyl-N-((5-(trifluoromethyl)pyridin-2-yl)methyl)-1H-pyrazolo[4,3-c]quinoline-8-carbohydrazide] | < 100 |
| 1 to 5 | 182 | CN(C(=O)C1CC1)N(Cc1nc2cc(Cl)ccc2o1)C(=O)c1ccc2nc(N)c3cnn(C)c3c2c1 [Example 259, 4-amino-N-((5-chlorobenzo[d]oxazol-2-yl)methyl)-N′-(cyclopropanecarbonyl)-N′,1-dimethyl-1H-pyrazolo[4,3-c]quinoline-8-carbohydrazide] | < 100 |
| 1 to 5 | 211 | Cn1ncc2c(N)nc3ccc(C(=O)N(Cc4ccc(C(F)(F)F)cn4)N4C(=O)O[C@@H]5CC[C@@H]54)cc3c21 [Example 260, 4-amino-1-methyl-N-((1R,5S)-3-oxo-2-oxa-4-azabicyclo[3.2.0]heptan-4-yl)-N-((5-(trifluoromethyl)pyridin-2-yl)methyl)-1H-pyrazolo[4,3-c]quinoline-8-carboxamide] | < 100 |
| 1 to 5 | 257 | CC(=O)N(C)N(Cc1ncc(C(F)(F)F)cc1Cl)C(=O)c1ccc2nc(N)c3cnn(C)c3c2c1 [Example 261, N′-acetyl-4-amino-N-((3-chloro-5-(trifluoromethyl)pyridin-2-yl)methyl)-N′,1-dimethyl-1H-pyrazolo[4,3-c]quinoline-8-carbohydrazide] | < 100 |
| 1 to 5 | 169 | CN(C(=O)[C@H]1C[C@H]1F)N(Cc1ncc(C(F)(F)F)cc1F)C(=O)c1ccc2nc(N)c3cnn(C)c3c2c1 [Example 262, 4-amino-N-((3-fluoro-5-(trifluoromethyl)pyridin-2-yl)methyl)-N′-((1R,2R)-2-fluorocyclopropane-1-carbonyl)-N′,1-dimethyl-1H-pyrazolo[4,3-c]quinoline-8-carbohydrazide] | < 100 |
| < 1 | 46 | [2H]C([2H])(c1ccc(C(F)(F)F)cc1F)N(C(=O)c1ccc2nc(N)c3cnn(C)c3c2c1)N(C)C(=O)C1CC1 [Example 263, 4-amino-N′-(cyclopropanecarbonyl)-N-((2-fluoro-4-(trifluoromethyl)phenyl)methyl-d2)-N′,1-dimethyl-1H-pyrazolo[4,3-c]quinoline-8-carbohydrazide] | < 100 |
| < 1 | 281 | [2H]C([2H])(c1ccc(C(F)(F)F)cc1F)N(C(=O)c1ccc2nc(N)c3cnn(C)c3c2c1)N(C)C(C)=O [Example 264, N′-acetyl-4-amino-N-((2-fluoro-4-(trifluoromethyl)phenyl)methyl-d2)-N′,1-dimethyl-1H-pyrazolo[4,3-c]quinoline-8-carbohydrazide] | < 100 |
| < 1 | 209 | CCC(=O)N(C)N(Cc1ncc(C(F)(F)F)cc1F)C(=O)c1ccc2nc(N)c3cnn(C)c3c2c1 [Example 265, 4-amino-N-((3-fluoro-5-(trifluoromethyl)pyridin-2-yl)methyl)-N′,1-dimethyl-N′-propionyl-1H-pyrazolo[4,3-c]quinoline-8-carbohydrazide] | < 100 |
| < 1 | 63 | [2H]C([2H])([2H])N(C(C)=O)N(Cc1ccc(C(F)(F)F)cc1F)C(=O)c1ccc2nc(N)c3cnn(C([2H])([2H])[2H])c3c2c1 [Example 266, N′-acetyl-4-amino-N-(2-fluoro-4-(trifluoromethyl)benzyl)-N′,1-bis(methyl-d3)-1H-pyrazolo[4,3-c]quinoline-8-carbohydrazide] | < 100 |
| 1 to 5 | 223 | Cc1cc(CN(C(=O)c2ccc3nc(N)c4cnn(C)c4c3c2)N(C)C(=O)C2CC2)ncc1Cl [Example 267, 4-amino-N-((5-chloro-4-methylpyridin-2-yl)methyl)-N′-(cyclopropanecarbonyl)-N′,1-dimethyl-1H-pyrazolo[4,3-c]quinoline-8-carbohydrazide] | < 100 |
| < 1 | 129 | [2H]C([2H])([2H])n1ncc2c(N)nc3ccc(C(=O)N(Cc4ccc(C(F)(F)F)cc4F)N(C)C(C)=O)cc3c21 [Example 270, N′-acetyl-4-amino-N-(2-fluoro-4-(trifluoromethyl)benzyl)-N′-methyl-1-(methyl-d3)-1H-pyrazolo[4,3-c]quinoline-8-carbohydrazide] | < 100 |
| < 1 | 86 | CC(=O)N(C)N(Cc1ncc(C(F)(F)F)cc1F)C(=O)c1ccc2nc(N)c3cnn(C)c3c2c1 [Example 271, N′-acetyl-4-amino-N-((3-fluoro-5-(trifluoromethyl)pyridin-2-yl)methyl)-N′,1-dimethyl-1H-pyrazolo[4,3-c]quinoline-8-carbohydrazide] | < 100 |
| < 1 | 466 | CN(C(=O)C1CC1)N(Cc1cc(F)c(F)cc1F)C(=O)c1ccc2nc(N)c3cnn(C)c3c2c1 [Example 272, 4-amino-N′-(cyclopropanecarbonyl)-N′,1-dimethyl-N-(2,4,5-trifluorobenzyl)-1H-pyrazolo[4,3-c]quinoline-8-carbohydrazide] | < 100 |
| < 1 | 243 | CN(C(=O)C1CC1)N(Cc1ncc(C(F)(F)F)cc1F)C(=O)c1ccc2nc(N)c3cnn(C)c3c2c1 [Example 274, 4-amino-N′-(cyclopropanecarbonyl)-N-((3-fluoro-5-(trifluoromethyl)pyridin-2-yl)methyl)-N′,1-dimethyl-1H-pyrazolo[4,3-c]quinoline-8-carbohydrazide] | < 100 |
| < 1 | 129 | Cc1nc2ccc(CN(C(=O)c3ccc4nc(N)c5cnn(C)c5c4c3)N(C)C(=O)C3CC3)cc2s1 [Example 275, 4-amino-N′-(cyclopropanecarbonyl)-N′,1-dimethyl-N-((2-methylbenzo[d]thiazol-6-yl)methyl)-1H-pyrazolo[4,3-c]quinoline-8-carbohydrazide] | < 100 |
| 1 to 5 | 166 | CN(C(=O)[C@@H]1C[C@@H]1F)N(Cc1ccc(C(F)(F)F)cn1)C(=O)c1ccc2nc(N)c3cnn(C)c3c2c1 [Example 276, 4-amino-N′-((1S,2S)-2-fluorocyclopropane-1-carbonyl)-N′,1-dimethyl-N-((5-(trifluoromethyl)pyridin-2-yl)methyl)-1H-pyrazolo[4,3-c]quinoline-8-carbohydrazide] | < 100 |
| 1 to 5 | 229 | Cn1ncc2c(N)nc3ccc(C(=O)N(Cc4ccc(C(F)(F)F)cn4)NC(=O)OC(C)(C)C)cc3c21 [Example 277, tert-butyl 2-(4-amino-1-methyl-1H-pyrazolo[4,3-c]quinoline-8-carbonyl)-2-((5-(trifluoromethyl)pyridin-2-yl)methyl)hydrazine-1-carboxylate] | < 100 |
| < 1 | 121 | [2H]C([2H])([2H])N(C(=O)C1CC1)N(Cc1ncc(C(F)(F)F)cc1F)C(=O)c1ccc2nc(N)c3cnn(C([2H])([2H])[2H])c3c2c1 [Example 278, 4-amino-N′-(cyclopropanecarbonyl)-N-((3-fluoro-5-(trifluoromethyl)pyridin-2-yl)methyl)-N′,1-bis(methyl-d3)-1H-pyrazolo[4,3-c]quinoline-8-carbohydrazide] | < 100 |
| 1 to 5 | 494 | CN(C(=O)C1CC1)N(Cc1cnc(C(F)(F)F)c(F)c1)C(=O)c1ccc2nc(N)c3cnn(C)c3c2c1 [Example 279, 4-amino-N′-(cyclopropanecarbonyl)-N-((5-fluoro-6-(trifluoromethyl)pyridin-3-yl)methyl)-N′,1-dimethyl-1H-pyrazolo[4,3-c]quinoline-8-carbohydrazide] | 100 to 1000 |
| 1 to 5 | 31 | CCC(=O)N(CC)N(Cc1ccc(C(F)(F)F)cn1)C(=O)c1cc2c(cc1F)nc(N)c1cnn(C)c12 [Example 280, 4-amino-N′-ethyl-7-fluoro-1-methyl-N′-propionyl-N-((5-(trifluoromethyl)pyridin-2-yl)methyl)-1H-pyrazolo[4,3-c]quinoline-8-carbohydrazide] | < 100 |
| 1 to 5 | 70 | CN(C(=O)C1CC1)N(Cc1ccc(C(F)(F)F)cn1)C(=O)c1ccc2nc(N)c3cn[nH]c3c2c1 [Example 281, 4-amino-N′-(cyclopropanecarbonyl)-N′-methyl-N-((5-(trifluoromethyl)pyridin-2-yl)methyl)-1H-pyrazolo[4,3-c]quinoline-8-carbohydrazide] | < 100 |
